Test results as given in US20240269214A1, “SUBSTANCE HAVING HIGH ACTIVITY AND HIGH SAFETY, PREPARATION METHOD THEREFOR, AND APPLICATION THEREOF IN DRUG” (priority 2021, published 2024).

Legend:
[1] = tested on: male Japanese white rabbits; test: Inhibition of formation of atherosclerosis in rabbits on high-fat diet (percentage of aortic plaque area); format: in vivo; settings: high-fat diet 6 weeks, oils 1.5 g/kg/d, simvastatin 2.0 mg/kg/d, PC group 42.6±9.7%
Source text: High fat fortified feed: Each rabbit is fed with 0.5 grams of cholesterol, 2.0 grams of lard, and 20 grams of egg yolk daily.
Feed for 6 weeks according to the above grouping and feeding conditions, and then execute the animals. After the animals are killed, the aorta is removed from the aortic valve orifice to the beginning of the common iliac artery, the aortic wall is cut longitudinally along the midline of the abdomen, fixed with 10% formaldehyde solution, and the distribution map of aortic lesions is drawn according to the aorta. The area of atherosclerotic plaque and the total area of aortic expansion are measured, and the percentage of plaque area is calculated.

[2] = tested on: male Japanese white rabbits; test: Reversing and ablating atherosclerosis in rabbits with established atherosclerosis model (percentage of aortic plaque area); format: in vivo; settings: 6 weeks modelling then 3 months treatment, oils 1.5 g/kg/d, simvastatin 2.0 mg/kg/d, MOD 45.8±9.9%, MBF 59.9±8.9%
Source text: Forty-eight 4-month-old male Japanese white rabbits weighing 2.0±0.2 kg were selected and randomly divided into 2 groups, as follows: • Normal diet group (Negative control group, NC): 8 male Japanese white rabbits, fed with basic feed; • Atherosclerosis modeling group (MOD): 40 male Japanese white rabbits, fed with high fat fortified basic diet, and the dose of peanut oil was 1.5 g/kg/d (converted based on adult and animal weight, body surface area and Km factor);
The area of atherosclerotic plaque and the total area of aortic expansion is measured, and the percentage of plaque area is calculated.
Three months later, all animals are euthanized.
After the animals are killed, the aorta is removed from the aortic valve orifice to the beginning of the common iliac artery, the aortic wall is cut longitudinally along the midline of the abdomen, fixed with 10% formaldehyde solution, and the distribution map of aortic lesions is drawn according to the aorta. The area of atherosclerotic plaque and the total area of aortic expansion is measured, and the percentage of plaque area is calculated.

## CCC(C)(C)C(=O)O[C@H]1C[C@@H](C)C=C2C=C[C@H](C)[C@H](CC[C@@H]3C[C@@H](O)CC(=O)O3)[C@H]21 [simvastatin]
[1]
  Plaque area (percentage of atherosclerotic plaque in aortic area): 20.2±4.2%
[2]
  Plaque area (percentage of atherosclerotic plaque in aortic area): 47.1±8.3%
